Reference: patent US20230233567A1, “BELVARAFENIB FOR USE IN CANCER TREATMENT” (Hanmi Pharm. Co., Ltd., priority 2020, published 2023)
Several values for one entry are separate records, joined by “and”; a condition that tells them apart may be missing. Equal entries are not always repeated. Where two headings read alike, the source gives them in different places.

Experiments:
[1] = test system: locally advanced and/or metastatic solid tumors carrying mutations in the BRAF, KRAS, and/or NRAS genes; assay: Phase I dose-escalation tumor response (RECIST v1.1); assay type: in vivo, human; details: for Best Change (size of target lesions from baseline): partial responder; for tumor response duration: n=1; for BORR (unconf.) / DCR / ORR (conf.) / PFS Median / DOR Median: Dose-Escalation
Protocol: (§1) Phase I dose-escalation (NCT02405065) and dose-expansion studies (NCT02405065) were conducted in patients with locally advanced and/or metastatic solid tumors carrying mutations in the BRAF, KRAS, and/or NRAS genes.
(§2) Eligible patients had measurable or evaluable disease per the Response Evaluation Criteria in Solid Tumors version 1.1 (RECIST v1.1). See Eisenhauer E A, Therasse P, Bogaerts J, et al., “New response evaluation criteria in solid tumours: revised RECIST guideline (version 1.1)”, Eur J Cancer 45:228-47, 2009. All patients had progressed on one or more prior lines of therapy or had no available standard therapy at the time of study entry. Additional eligibility criteria included Eastern Cooperative Oncology Group (ECOG) performance status ≤2 and life expectancy ≥12 weeks. Patients with cardiovascular abnormalities as mean QTcF>440 msec were excluded from the dose-expansion phase.
(§3) Tumor response assessments were performed radiographically by the investigator using RECIST version 1.1 at baseline, and at the end of every two treatment cycles until discontinuation. Safety evaluation (Safety Set) included all patients who received one or more doses of belvarafenib and efficacy evaluation (Full Analysis Set) included subjects who received at least one dose of belvarafenib and had at least one post-dose tumor response assessment.

[2] = target: BRAF (Homo sapiens, UniProt P15056); assay: RAF inhibition Ki; assay type: biochemical
Protocol: (§4) Belvarafenib was evaluated to measure the inhibition capability of RAF monomers and dimers. In Table 12: “A375” refers to the A375 a human melanoma cell line bearing a BRAF^V600E mutation; “IPC298” refers to the IPC298 cutaneous melanoma cell line bearing an NRAS^Q61L mutation; “A549” refers to the A549 lung adenocarcinoma cell line baring a KRAS mutation; “CSFR1” refers to the CSFR1 gene; “DDR1” refers to discoidin domain receptors DDR1; and “DDR2” refers to discoidin domain receptors DDR2. In Table 13: “% P/T−MEK” refers to the ratio of P-MEK and total MEK; “Conc 1” refers to an inhibitor first (lowest) concentration; “Conc 2” refers to an inhibitor second (intermediate) concentration; and “Conc 3” refers to an inhibitor third (highest) concentration. In Table 13, LXH254 refers to a drug having CAS No.: 1800398-38-2 and the following structure: […]

[3] = target: CRAF (Homo sapiens, UniProt P04049, Y340D/Y341D); assay: RAF inhibition Ki; assay type: biochemical
Protocol: as §4

[4] = test system: A375 human melanoma cell line bearing a BRAF^V600E mutation; assay: A375 IC50; assay type: cell-based; details: A-375
Protocol: as §4

[5] = test system: MEK and ERK phosphorylation in A375 (BRAF^V600E) cells; assay: Inhibition of MEK and ERK phosphorylation; assay type: cell-based; details: Homo sapiens
[6] = test system: locally advanced and/or metastatic solid tumors carrying mutations in the BRAF, KRAS, and/or NRAS genes; assay: Phase I dose-escalation tumor response (RECIST v1.1); assay type: in vivo, human; set-up: key: “PR” refers to partial response; “SD” refers to stable disease; “PD” refers to progressive disease
Protocol: as §1, §2, §3

[7] = BRAF^V600E Melanoma, 450 mg BID

CRAF, sequence (P04049 306-648 Y340D/Y341D): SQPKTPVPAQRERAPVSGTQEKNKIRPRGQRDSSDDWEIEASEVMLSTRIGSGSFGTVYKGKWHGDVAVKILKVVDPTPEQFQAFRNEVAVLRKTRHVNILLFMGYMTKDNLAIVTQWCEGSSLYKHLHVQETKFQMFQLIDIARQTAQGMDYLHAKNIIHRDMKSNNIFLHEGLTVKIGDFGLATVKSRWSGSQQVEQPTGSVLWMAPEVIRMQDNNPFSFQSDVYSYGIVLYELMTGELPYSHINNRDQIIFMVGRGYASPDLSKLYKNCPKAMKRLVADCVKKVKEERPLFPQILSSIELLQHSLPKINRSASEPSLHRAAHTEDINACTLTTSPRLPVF
BRAF, sequence (P15056 whole entry, the tested form may be a part): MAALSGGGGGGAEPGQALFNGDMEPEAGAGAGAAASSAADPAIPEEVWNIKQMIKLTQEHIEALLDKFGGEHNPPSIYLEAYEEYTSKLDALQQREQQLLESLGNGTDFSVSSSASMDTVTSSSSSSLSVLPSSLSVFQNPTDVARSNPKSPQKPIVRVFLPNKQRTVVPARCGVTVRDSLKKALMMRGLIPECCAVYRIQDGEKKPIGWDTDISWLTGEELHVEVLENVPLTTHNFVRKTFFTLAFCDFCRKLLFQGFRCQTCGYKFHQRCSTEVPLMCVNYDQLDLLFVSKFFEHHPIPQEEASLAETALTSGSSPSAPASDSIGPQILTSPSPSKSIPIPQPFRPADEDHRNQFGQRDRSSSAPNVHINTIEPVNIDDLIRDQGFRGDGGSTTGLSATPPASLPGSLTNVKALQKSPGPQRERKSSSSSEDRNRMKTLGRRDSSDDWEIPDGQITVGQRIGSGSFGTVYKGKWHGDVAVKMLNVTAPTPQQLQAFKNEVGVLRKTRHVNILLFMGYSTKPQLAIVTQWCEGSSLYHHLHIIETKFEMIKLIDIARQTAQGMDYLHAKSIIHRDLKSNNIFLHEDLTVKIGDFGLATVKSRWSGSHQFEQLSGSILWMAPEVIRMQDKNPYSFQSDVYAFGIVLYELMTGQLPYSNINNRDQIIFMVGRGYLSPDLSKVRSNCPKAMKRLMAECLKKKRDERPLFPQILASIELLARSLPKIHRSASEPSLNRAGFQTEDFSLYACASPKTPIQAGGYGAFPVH

Cc1ccc2c(Nc3cccc(Cl)c3F)nccc2c1NC(=O)c1csc2c(N)ncnc12 [Belvarafenib]
treatment Duration ([1]; BRAF^V600E CRC, 200 mg BID): 303 days and 255 days | treatment Duration ([1]; BRAF^V600E GIST, 200 mg BID): 512 days | Best Change (size of target lesions from baseline) ([1]; BRAF^V600E GIST, 450 mg BID): −38.1% | treatment Duration [1, 7]: 377 days | Best Change (size of target lesions from baseline) [1, 7]: −33.2% | treatment Duration ([1]; BRAF^V600E Melanoma, 800 mg BID): 702 days | tumor response duration ([1]; BRAFm GIST): 36 weeks | BORR (unconf.) ([1]; All pts (N = 67)): 7 (10.5) n (%) | DCR ([1]; All pts (N = 67)): 34 (50.6) n(%) | ORR (conf.) ([1]; All pts (N = 67)): 3 (4.5) n(%) | PFS Median ([1]; All pts (N = 67)): 11.5 weeks | DOR Median ([1]; All pts, 7 responders): 24.0 weeks | BORR (unconf.) ([1]; NRASm mel. (N = 9)): 4 (44.4) n (%) | DCR ([1]; NRASm mel. (N = 9)): 6 (66.7) n(%) | ORR (conf.) ([1]; NRASm mel. (N = 9)): 1 (11.1) n(%) | PFS Median ([1]; NRASm mel. (N = 9)): 25 weeks and 24.9 weeks | DOR Median ([1]; NRASm mel., 4 responders): 17.8 weeks | treatment Duration ([1]; KRAS^G12C CRC, 100 mg BID): 437 days | treatment Duration ([1]; KRAS^G12V Bladder, 300 mg BID): 311 days | Best Change (size of target lesions from baseline) ([1]; KRAS^G12V Sarcoma, 450 mg BID): −50.5% | tumor response duration ([1]; KRASm sarcoma): 18 weeks | treatment Duration ([1]; NRAS^G12C Melanoma, 800 mg BID): 611 days | Best Change (size of target lesions from baseline) ([1]; NRAS^G12D Melanoma, 450 mg BID): −44.4% | Best Change (size of target lesions from baseline) ([1]; NRAS^Q61 AND BRAF^V600E Melanoma, 450 mg BID): −33.8% | treatment Duration ([1]; NRAS^Q61K Melanoma, 200 mg BID): 307 days | treatment Duration ([1]; NRAS^Q61K Melanoma, 300 mg BID): 278 days | Best Change (size of target lesions from baseline) ([1]; NRAS^Q61K Melanoma, 450 mg BID): −36.2% | Best Change (size of target lesions from baseline) ([1]; NRAS^Q61R Melanoma, 450 mg BID): −30.6% | patients with best overall response of partial response (PR) ([1]; dose-escalation, 67 patients): 10.4% | best overall response rate [BORR] ([1]; dose-escalation, NRASm melanoma, 9 patients): 44% | Ki [2]: 41 nM | Ki [3]: 2 nM | IC50 [4]: 190 nM | IC50 ([5]; A-375, read-out: IC50 pERK): < 1 nM | IC50 ([5]; A-375, read-out: IC50 pMEK): 42 nM | Belvarafenib BOR ([6]; NRAS G12C melanoma, prior Nivolumab): SD | Belvarafenib BOR ([6]; NRAS G12D melanoma, prior Ipilimumab): PR | Belvarafenib BOR ([6]; NRAS Q61K melanoma, prior Nivolumab): PR | Belvarafenib BOR ([6]; NRAS Q61R melanoma, prior Ipilimumab): PR | Belvarafenib BOR ([6]; NRAS Q61R melanoma, prior Pembrolizumab): PD
